Laboratory results: patent publication US11339169B2, “P2X3 and/or P2X2/3 compounds and methods” (Asana BioSciences, LLC, priority 2016, dated 2022)
“And” between values parts separate entries of the source, which are not always exact repeats. Equal entries are not always repeated.

Assays:
[1] = biological target: T1, hP2X3 (Homo sapiens, UniProt P56373); assay: FLIPR intracellular calcium assay, hP2X3; format: cell-based; conditions: human P2X3-HEK cells, agonist at EC75
T1 construct: host or cells: HEK (hP2X3-HEK)
T1 sequence (P56373 1-397): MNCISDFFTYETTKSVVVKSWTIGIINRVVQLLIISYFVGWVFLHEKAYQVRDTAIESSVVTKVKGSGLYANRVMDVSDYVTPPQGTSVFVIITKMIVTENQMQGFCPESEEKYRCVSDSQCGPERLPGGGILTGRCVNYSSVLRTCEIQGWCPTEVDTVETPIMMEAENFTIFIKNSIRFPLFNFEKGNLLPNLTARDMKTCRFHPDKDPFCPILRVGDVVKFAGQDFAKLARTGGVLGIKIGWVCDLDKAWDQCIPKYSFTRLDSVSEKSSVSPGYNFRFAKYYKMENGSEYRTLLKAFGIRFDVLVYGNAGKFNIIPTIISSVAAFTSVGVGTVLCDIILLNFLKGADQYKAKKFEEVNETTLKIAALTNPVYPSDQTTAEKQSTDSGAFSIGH
Text: (§1) The FLIPR® assay utilizes cells which express human or rat P2X3 or P2X2/3 receptors. Recombinant cells expressing hP2X3 (Cat #6188) and hP2X2/3 (Cat #6179) were procured from Chantest Corp. Rat P2X2 (NCBI Accession No: U14414) was amplified by PCR from PC12 cDNA (a rat adrenal medulla cell line). The PCR product obtained containing the protein coding sequence of rat P2X2 was cloned into EcoRV-digested and dephosphorylated vector plRES-puro3 within the multiple cloning site (MCS). See, FIG. 1A.
(§2) (i) Intracellular Calcium Assay Protocol for Screening Compounds
(§3) Cryo-vial containing 6×10^6 cells (human P2X3-HEK/human P2X2/3-TRex293/rat P2X2/3-TRex293/rat P2X3 TRex-CHO) was thawed in a 37° C. water bath. Cells were suspended in 20 mL of respective cell plating media (See annexure for composition) in a 50 mL centrifuge tube. The cell viability was checked with the help of Trypan Blue dye. Upon washing, cells were plated in a black 384-well clear bottomed, sterile poly-D-lysine coated plate such that, each well contained 10,000 cells (15,000/well for hP2X3) in 30 μL cell plating media. The plate was incubated in a 5% CO2 incubator at 37° C. for 24 h.
(§4) The next day, prior to the assay, the cell plating media was removed from each well by decanting and gentle tapping. Thirty μL of FLIPR Calcium 4 dye solution was added to each well. The plate was incubated at 37° C. for 45 min (60 min for hP2X3). The plate was next equilibrated at room temperature for 15 minutes before placing it in a 384 well FLIPR for the assay.
(§5) Compounds were dissolved in DMSO and serially diluted following 11 point half log (3.16 fold) dilution with a starting concentration of 2 mM. Dilutions were mixed with assay buffer just before performing the assay.
(§6) Compounds were added to the respective wells of the assay-ready cell plate with the help of the FLIPR and fluorescence readings were captured for 5 min to observe any possible agonistic property of the compounds. The plate was then incubated at room temperature for 15 min. The cells were stimulated with respective agonist EC75 concentration and the fluorescence readings were captured for another 5 min by FLIPR. The difference in fluorescence readings in presence of the compounds were compared with that of the control wells (wells having no compound) to calculate the inhibitory potency of the compounds. The IC50 values of the compounds were determined using the Graph pad Prism software.
(§7) (ii) Cell Plating Media for hP2X3-HEK and hP2X2/3-TRex293 Cells • DMEM/F12 (1:1) HAM media (Invitrogen; Cat #11039) • 1×NEAA (Invitrogen; Cat #11140) • 25 mM HEPES (Invitrogen; Cat #15630) • 1 mM sodium pyruvate (Invitrogen; Cat #11360) • 10% tetracycline negative FBS (PAA; Cat #A15-209) • 1 μg/mL doxycycline (Clontech; Cat #63131) [for hP2X2/3-TRex293 cells only]
(§8) (v) Assay Buffer Composition • HBSS (Invitrogen Cat #14025) • 20 mM HEPES (Invitrogen Cat #15630) • 0.01% F127 (Sigma Cat #P2443) • 1.8 mM CaCl2 (Sigma Cat #C5080) • pH adjusted to 7.4
(§9) (vi) Dye Solution Composition • 1× FLIPR Calcium 4 dye in assay buffer (Molecular devices Cat #R8141) • 1.8 mM Probenecid (Sigma Cat #P8761) • pH adjusted to 7.4

[2] = biological target: T2, hP2X2/3 (Homo sapiens, UniProt P56373+Q9UBL9); assay: FLIPR intracellular calcium assay, hP2X2/3; format: cell-based; conditions: human P2X2/3-TRex293 cells, agonist at EC75
T2 construct: host or cells: TRex293 (hP2X2/3-TRex293), doxycycline-induced
T2 sequence (P56373 1-397): T1 sequence (P56373 1-397)
T2 sequence (Q9UBL9 1-471): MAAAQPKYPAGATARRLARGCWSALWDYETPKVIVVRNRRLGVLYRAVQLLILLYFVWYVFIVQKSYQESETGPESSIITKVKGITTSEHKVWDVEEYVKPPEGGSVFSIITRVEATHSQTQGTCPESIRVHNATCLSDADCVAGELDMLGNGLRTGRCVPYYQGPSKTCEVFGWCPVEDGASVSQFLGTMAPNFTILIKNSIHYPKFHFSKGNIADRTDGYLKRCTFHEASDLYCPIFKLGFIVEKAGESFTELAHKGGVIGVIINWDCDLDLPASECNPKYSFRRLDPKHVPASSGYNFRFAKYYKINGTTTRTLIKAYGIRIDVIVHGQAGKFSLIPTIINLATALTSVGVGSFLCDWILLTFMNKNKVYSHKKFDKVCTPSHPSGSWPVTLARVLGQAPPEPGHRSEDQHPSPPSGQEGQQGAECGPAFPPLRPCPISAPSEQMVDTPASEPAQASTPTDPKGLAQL
Text: as §1, §2, §3, §4, §5, §6, §7, §8, §9

CC(=O)N1CCN(c2nc(N[C@@H](c3cnc4ccccc4c3)C3CC3)c3c(cnn3C(C)C(C)C)n2)CC1 (stereo partly shown) [Example 62]
IC50 [1]: 1 to 100 nM
IC50 [2]: 100 to 1000 nM

CCC(CC)n1ncc2nc(N3CCN(C(N)=O)CC3)nc(NCc3cnc4ccccc4c3)c21 [Example 64]
IC50 [1]: 1 to 100 nM
IC50 [2]: 1000 to 10000 nM

CCC(CC)n1ncc2nc(N3CCN(C(C)=O)CC3)nc(NC(c3cnc4ccc(F)cc4c3)C3CC3)c21 (stereo not shown) [Example 65]
IC50 [1]: 1 to 100 nM
IC50 [2]: 100 to 1000 nM

CC(C)n1ncc2nc(N3CCN(C(N)=O)CC3)nc(N[C@@H](c3cnc4ccccc4c3)C3CC3)c21 [Example 66]
IC50 [1]: 1 to 100 nM
IC50 [2]: 100 to 1000 nM

CC[C@H](C)n1ncc2nc(N3CCN(C(N)=O)CC3)nc(NC(C)c3cnc4cc(F)c(F)cc4c3)c21 (stereo partly shown) [Example 68]
IC50 [1]: 1 to 100 nM
IC50 [2]: 100 to 1000 nM

CC[C@H](C)n1ncc2nc(N3CCN(C(N)=O)CC3)nc(N[C@@H](c3cnc4ccccc4c3)C3CC3)c21 [Example 69]
IC50 [1]: 1 to 100 nM
IC50 [2]: 1 to 100 nM

CC[C@@H](C)n1ncc2nc(N3CCN(C(N)=O)CC3)nc(N[C@@H](c3cnc4ccccc4c3)C3CC3)c21 [Example 70]
IC50 [1]: 1 to 100 nM
IC50 [2]: 1 to 100 nM

NC(=O)N1CCN(c2nc(N[C@@H](c3cnc4ccccc4c3)C3CC3)c3c(cnn3C3CCOCC3)n2)CC1 [Example 72]
IC50 [1]: 1 to 100 nM
IC50 [2]: 1000 to 10000 nM

CCC(CC)n1ncc2nc(-n3ccnn3)nc(N[C@@H](c3cnc4ccccc4c3)C3CC3)c21 [Example 74]
IC50 [1]: 1 to 100 nM
IC50 [2]: 100 to 1000 nM

CCC(C)n1ncc2nc(N3CCC(C(N)=O)CC3)nc(N[C@@H](c3cnc4ccccc4c3)C3CC3)c21 (stereo partly shown) [Example 75]
IC50 [1]: 1 to 100 nM
IC50 [2]: 1000 to 10000 nM

CCC(C)n1ncc2nc(N3CCOC(C#N)C3)nc(N[C@@H](c3cnc4ccccc4c3)C3CC3)c21 (stereo partly shown) [Example 76]
IC50 [1]: 100 to 1000 nM
IC50 [2]: 1000 to 10000 nM

CCC(C)n1ncc2nc(-n3cncn3)nc(N[C@@H](c3cnc4ccccc4c3)C3CC3)c21 (stereo partly shown) [Example 77]
IC50 [1]: 1 to 100 nM and 100 to 1000 nM
IC50 [2]: 1000 to 10000 nM

CC[C@H](C)n1ncc2nc(N3CCN(C(N)=O)CC3)nc(NC(c3ccc4c(cnn4CC)c3)C3CC3)c21 (stereo partly shown) [Example 80]
IC50 [1]: 1 to 100 nM
IC50 [2]: 1000 to 10000 nM

CC[C@H](C)n1ncc2nc(N3CCN(C(C)=O)CC3)nc(NC(CO)c3cnc4ccccc4c3)c21 (stereo partly shown) [Example 81]
IC50 [1]: 1 to 100 nM
IC50 [2]: 100 to 1000 nM

CC[C@H](C)n1ncc2nc(N3CCN(C(C)=O)CC3)nc(NC(COC)c3cnc4ccccc4c3)c21 (stereo partly shown) [Example 82]
IC50 [1]: 1 to 100 nM
IC50 [2]: 1000 to 10000 nM

CC[C@H](C)n1ncc2nc(N3CCN(C(N)=O)CC3)nc(NC(c3cnc4ccccc4n3)C3CC3)c21 (stereo partly shown) [Example 83]
IC50 [1]: 1 to 100 nM
IC50 [2]: 1000 to 10000 nM

CCC(C)n1ncc2nc(N3CCN(C(N)=O)CC3)nc(N[C@H](C)c3cn4ccc(C)cc4n3)c21 (stereo partly shown) [Example 84]
IC50 [1]: 1 to 100 nM
IC50 [2]: 1000 to 10000 nM

CCC(C)n1ncc2nc(N3CCN(C(N)=O)CC3)nc(N[C@H](C)c3cnc4ccccc4c3)c21 (stereo partly shown) [Example 85]
IC50 [1]: 1 to 100 nM
IC50 [2]: 100 to 1000 nM

CC(C1CC1)n1ncc2nc(N3CCN(C(N)=O)CC3)nc(N[C@@H](c3cnc4ccccc4c3)C3CC3)c21 (stereo partly shown) [Example 86]
IC50 [1]: 1 to 100 nM
IC50 [2]: 1 to 100 nM

CCC(C)n1ncc2nc(N3CCN(C(C)=O)CC3)nc(N[C@H](C)c3cnc4ccccc4c3)c21 (stereo partly drawn) [Example 89, 1-{4-[1-sec-Butyl-7-((R)-1-quinolin-3-yl-ethylamino)-1H-pyrazolo[4,3-d]pyrimidin-5-yl]-piperazin-1-yl}-ethanone]
IC50 [1]: 1 to 100 nM
IC50 [2]: 100 to 1000 nM

CCC(C)n1nc(Br)c2nc(N3CCN(C(C)=O)CC3)nc(N[C@H](C)c3cnc4ccccc4c3)c21 (stereo partly drawn) [Example 90, 1-{4-[3-Bromo-1-sec-butyl-7-((R)-1-quinolin-3-yl-ethylamino)-1H-pyrazolo[4,3-d]pyrimidin-5-yl]-piperazin-1-yl}-ethanone]
IC50 [1]: 1 to 100 nM
IC50 [2]: 1000 to 10000 nM

CCC(C)n1nc(C#N)c2nc(N3CCN(C(C)=O)CC3)nc(N[C@H](C)c3cnc4ccccc4c3)c21 (stereo partly drawn) [Example 91, 5-(4-Acetyl-piperazin-1-yl)-1-sec-butyl-7-((R)-1-quinolin-3-yl-ethylamino)-1H-pyrazolo[4,3-d]pyrimidine-3-carbonitrile]
IC50 [1]: 1 to 100 nM
IC50 [2]: 1000 to 10000 nM

CCC(C)n1nc(C2CC2)c2nc(N3CCN(C(C)=O)CC3)nc(N[C@H](C)c3cnc4ccccc4c3)c21 (stereo partly drawn) [Example 93, 1-{4-[1-sec-Butyl-3-cyclopropyl-7-((R)-1-quinolin-3-yl-ethylamino)-1H-pyrazolo[4,3-d]pyrimidin-5-yl]-piperazin-1-yl}-ethanone]
IC50 [1]: 1 to 100 nM
IC50 [2]: 1000 to 10000 nM

CC(=O)N1CCN(c2nc(NC(C)c3cnc4ccccc4c3)c3nn(C(C)C)c(Br)c3n2)CC1 (stereo not shown) [Example 94]
IC50 [1]: 1 to 100 nM
IC50 [2]: 1000 to 10000 nM

CC(=O)N1CCN(c2nc(NC(C)c3cnc4ccccc4c3)c3nn(C(C)C)c(C)c3n2)CC1 (stereo not shown) [Example 96]
IC50 [1]: 1 to 100 nM
IC50 [2]: > 10000 nM

CC(=O)N1CCN(c2nc(N[C@H](C)c3cnc4ccccc4c3)c3nn(C(C)C)c(Br)c3n2)CC1 [Example 98]
IC50 [1]: 1 to 100 nM
IC50 [2]: 1000 to 10000 nM

CC(=O)N1CCN(c2nc(N[C@H](C)c3cnc4ccccc4c3)c3nn(C(C)C)c(Cl)c3n2)CC1 [Example 99]
IC50 [1]: 1 to 100 nM
IC50 [2]: 1000 to 10000 nM

CC(=O)N1CCN(c2nc(N[C@H](C)c3cnc4ccccc4c3)c3c(n2)c(Br)nn3C(C)C)CC1 [Example 100]
IC50 [1]: 1 to 100 nM
IC50 [2]: 1000 to 10000 nM

CC(=O)N1CCN(c2nc(NC(C)(C)Cc3ccc(Cl)cc3)c3nn(C(C)C)c(C)c3n2)CC1 [Example 101]
IC50 [1]: 100 to 1000 nM
IC50 [2]: 1000 to 10000 nM
